# Assay results published in patent EP4813993A1, “COMPOUND, PREPARATION METHOD THEREFOR, AND USE THEREOF” (Sichuan Kelun Pharmaceutical Research Institute Co., Ltd., priority 2023, dated 2025).
# Experiments:
# incision pain model [1] = assay: Incision pain model in ICR mice, Von Frey test; assay type: in vivo; conditions: 50 mg/kg single dose, Mean + SEM, n = 10
# incision pain model [2] = assay: Incision pain model in SD rats, Von Frey test; assay type: in vivo
# Method: Experimental Example 7: Pharmacodynamic effect study of compounds in incision pain model in SD rats
# Experimental animals: SD rats, male, 180-220 g.
# Compound preparation: 5% (final preparation volume) of DMSO was added to dissolve the test compound, and then 10% (final preparation volume) of Cremophor EL and 85% Saline were sequentially added.
# A plantar incision pain model was established in rats via surgery before the administration and test. Rats were placed in an anesthesia induction chamber and given 3%-4% isoflurane for anesthesia induction. After the anesthesia induction, a breathing mask was applied, and the isoflurane concentration was adjusted to 1%-2% to prevent the rats from suffering pain during the surgery. Each rat was placed in a supine position, and the surgical site was disinfected with alcohol and iodophor. Under sterile conditions, a 0.5 cm longitudinal incision was made on the left hind paw surface, 0.2 cm away from the heel, extending toward the toes. The skin and fascia were incised; the plantar muscle was separated, slightly lifted, and longitudinally incised. The skin was then sutured with 5-0 sutures and disinfected.
# 2. Administration and test
# The Von Frey test was performed once before the surgery. On the second day after animal modeling, the test was repeated, and animals meeting the baseline requirements were selected for enrollment. The animals were randomly divided into 6 groups based on the 50% PWT values, with 10 animals per group. Administration was performed under a double-blind test protocol. The 50% PWT of the animals was measured separately before administration (baseline) and at 0.5 h, 2 h, 4 h, 6 h, or 8 h after administration, and a single dose was administered. The model control group was given normal saline, while the compound groups were given the compounds according to the administration doses in the table below.
# [3] = system: acetic acid writhing model; assay: Mouse acetic acid writhing model; assay type: in vivo, ICR mice; conditions: for Number of writhing responses / Inhibition rate (%): ICR mice; for Number of writhing responses: 60 min before 0.8% acetic acid i.p., 30 min observation, Mean + SD, n = 10; for Inhibition rate (%): inhibition of writhing responses vs control group
# incision pain model [4] = assay: Incision pain model in ICR mice, Von Frey test; assay type: in vivo; conditions: Mean + SEM, n = 10; for PWT 50% value (g) Post-surgery, Preadministration: baseline before administration; for PWT 50% value (g) Pre-surgery: baseline before surgery; for PWT 50% value (g) 0.5 h: 0.5 h after administration; for PWT 50% value (g) 2 h: 2 h after administration; for PWT 50% value (g) 4 h: 4 h after administration
# In short: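 Male ICR mice (28-35 g) received a plantar hind-paw incision; next day, animals meeting baseline were randomized on 50% PWT (n=10/group). Single dose in 5% DMSO/10% Cremophor EL/85% saline, double-blind; 50% PWT by von Frey before and 0.5, 2 and 4 h after dosing; saline model control.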
# [5] = mouse acetic acid writhing model
compound,measurement,setting,value
"COc1c(C2CC(C)(C(F)(F)F)SC2C(=O)Nc2ccnc(C(N)=O)c2)ccc(F)c1F (single isomer, unassigned) [Compound 139-A, 4-(3-(3,4-difluoro-2-methoxyphenyl)-5-methyl-5-(trifluoromethyl)tetrahydrothiophene-2-carboxamido)picolinamide]",PWT 50% value (g) AUC0-8h,incision pain model [1],5.45 ± 1.62 g·h
same,analgesic activity compared with VX-548,"incision pain model [2]; SD rats incision pain model, at the same dose",better analgesic activity than VX-548
same,"PWT 50% value (g) Post-surgery, Preadministration","incision pain model [2]; SD rats, 125 mg/kg group, baseline before administration, Mean + SEM, n = 10",3.95 ± 1.12 g
same,PWT 50% value (g) Pre-surgery,"incision pain model [2]; SD rats, 125 mg/kg group, baseline before surgery, Mean + SEM, n = 10",14.4 ± 1.27 g
same,PWT 50% value (g) Time 0.5 h,"incision pain model [2]; SD rats, 125 mg/kg single dose, 0.5 h after administration, Mean + SEM, n = 10",7.46 ± 3.86 g
same,PWT 50% value (g) Time 2 h,"incision pain model [2]; SD rats, 125 mg/kg single dose, 2 h after administration, Mean + SEM, n = 10",10.11 ± 3.83 g
same,PWT 50% value (g) Time 6 h,"incision pain model [2]; SD rats, 125 mg/kg single dose, 6 h after administration, Mean + SEM, n = 10",6.28 ± 2.28 g
same,PWT 50% value (g) Time 8 h,"incision pain model [2]; SD rats, 125 mg/kg single dose, 8 h after administration, Mean + SEM, n = 10",6.29 ± 2.6 g
same,PWT 50% value (g) AUC0-8h,"incision pain model [2]; SD rats, 125 mg/kg single dose, Mean + SEM, n = 10",60.47 ± 11.72 g
same,dose-effect relationship,incision pain model [2]; rat incision pain model,relatively good dose-effect relationship
same,Number of writhing responses,[3]; Dose 50 mg/kg,27±18
same,Inhibition rate (%),[3]; Dose 50 mg/kg,45.36%
same,Number of writhing responses,[3]; Dose 125 mg/kg,18±12
same,Inhibition rate (%),[3]; Dose 125 mg/kg,62.89%
same,effect of inhibiting the number of writhing responses,[3]; dose of 125 mg/kg,very significant effect
same,dose-effect relationship,[3]; [5],relatively good dose-effect relationship
same,inhibition of the writhing effect compared with VX-548,[3]; [5],better than VX-548
same,"PWT 50% value (g) Post-surgery, Preadministration",incision pain model [4]; 50 mg/kg group,0.22 ± 0.03 g
same,PWT 50% value (g) Pre-surgery,incision pain model [4]; 50 mg/kg group,1.39 ± 0.31 g
same,PWT 50% value (g) 0.5 h,incision pain model [4]; 50 mg/kg single dose,0.74 ± 0.3 g
same,PWT 50% value (g) 2 h,incision pain model [4]; 50 mg/kg single dose,1.05 ± 0.38 g
same,PWT 50% value (g) 4 h,incision pain model [4]; 50 mg/kg single dose,0.74 ± 0.29 g
same,"PWT 50% value (g) Post-surgery, Preadministration",incision pain model [4]; 125 mg/kg group,0.22 ± 0.02 g
same,PWT 50% value (g) Pre-surgery,incision pain model [4]; 125 mg/kg group,1.25 ± 0.31 g
same,PWT 50% value (g) 0.5 h,incision pain model [4]; 125 mg/kg single dose,0.82 ± 0.33 g
same,PWT 50% value (g) 2 h,incision pain model [4]; 125 mg/kg single dose,1.09 ± 0.32 g
same,PWT 50% value (g) 4 h,incision pain model [4]; 125 mg/kg single dose,0.87 ± 0.16 g
same,PWT 50% value (g) AUC0-8h,incision pain model [4]; 125 mg/kg single dose,6.08 ± 1.2 g·h
